Bridges are numbered along the chain shown (N, C = ends). Primed or numbered codes have the meaning given here. Where no end group is shown, it is not given here. The star is where a group is joined. DOTA = O=C(O)CN1CCN(CC(=O)O)CCN(CC(=O)*)CCN(CC(=O)O)CC1; Biotin = O=C1N[C@H]2[C@H](CS[C@H]2CCCCC(=O)*)N1; PEG4 = NCCOCCOCCOCCOCCC(=O)O; PEG4′ = not defined here
Experiments:
[1] = In vitro metabolic stability, kidney brush border membrane preparations (KBBM); type: in vitro ADME; design: unit not given here; conditions: mouse kidney brush border membrane preparation, 37° C.
Procedure: (§1) Exemplary miniprotein conjugates were spiked into biological matrices at initial concentration between 1-2 μM. Tested matrices were varied by species (mouse, rat, human) and type (plasma, serum, and kidney brush border membrane preparations tested each from 0.625-100 μg/mL protein content). Tested conditions were incubated with TAs at 37° C. for 4 hours. At collection points of 0, 15, 30, 60, 120, 240 minutes, 50 μL of each condition were quenched by organic solvent (methanol or acetonitrile) or the addition of 4% phosphoric acid solution. Fractions of each quenched timepoint were subsequently assayed for parent TA concentration by high resolution LC-MS. Percent-parent-remaining-time plots were constructed from the ratio of each given time collection to the time-zero parent TA. Percent-parent-remaining in mouse serum and plasma for exemplary miniproteins are recorded in Table 8.

[2] = In vitro metabolic stability, plasma; type: in vitro ADME; design: unit not given here; conditions: 37° C.
Procedure: as §1

[3] = system: >6,500 different human proteins; assay: Off-target binding, cell microarray platform (Retrogenix Assay) in HEK293 cells; conditions: biotin-labeled molecules
Procedure: To evaluate potential off-target binding, eight biotin-labeled molecules were tested in a cell microarray platform (Charles River Lab, Retrogenix Assay) having >6,500 different human proteins spanning diverse functions and subcellular locations.
Initially, two pools of molecules were tested. Pool #1 consisted of C298, C300, C302, C304, and pool #2 consisted of C306, C308, C310, and C312 at 2 μg/mL for each molecule. To perform this assay, HEK293 cells were plated on a dish and localized spots of cells were transiently over-expressed with a cDNA encoding for one of the >6,500 targets. Included in this library were two isoforms of CD276 (B7-H3) and B7-H3 related proteins (B7-1, B7-2, B7-H1/PD-L1, and B7-H2). The molecule pools were incubated on the fixed, over-expressing cell microarrays (n=2 per protein), and binding was visualized using Alexa Fluor 647 streptavidin fluorescence. All transfection efficiencies exceeded minimum thresholds for the microarray expression targets. Preliminary interactions identified from pooled results were re-spotted in duplicates, and each of the eight compounds were tested individually (n=2) at 2 μg/mL and/or in dose response against these targets as described above to validate the interactions.
All positive control interactions were strong and passed quality control. Specific interactions observed (median SNR≥1) confirmed on-target B7-H3 binding in two different isoforms for each of the eight test molecules. These interactions with the primary target occurred after fixation and in live cells (absence of fixation). No significant additional interactions were confirmed for any test molecules outside of B7-H3, indicating high specificity for the primary target (data not shown).

[4] = system: opossum kidney proximal tubule cells; assay: OK-PTC uptake assay of miniprotein conjugates in presence of scaffold A decoys; type: cell-based; conditions: compound 20 μM
Procedure: This Example describes reduction of uptake of exemplary truncated and constrained B7-H3 miniprotein conjugates (C272, C308, C234, C394, C250, and C228) when combined with exemplary scaffold A decoys (C118, C119 and C120) as compared to no decoy. Uptake of compounds was evaluated in opossum kidney proximal tubule cells (as described in Example 5). Here, cells were treated with a compound in the presence or absence of a 20-fold molar excess of exemplary scaffold A decoys, C118, C119, and C120. Results depicting uptake of six exemplary B7-H3-targeting compounds, C272, C308, C234, C394, C250, and C228, in OK-PTC cells in the presence and absence of exemplary decoys C118, C119, and C120 (scaffold A decoys) are shown in Table 13. The B7-H3-targeting compounds were used at 20 μM and the decoys used at a 20-fold (with C272, C308, C234, C394, and C250) and 10-fold (with C228) molar excess.

[5] = In vitro metabolic stability, kidney brush border membrane (KBBM), mouse; type: in vitro ADME; conditions: 37° C.
Text: (§2) This Example describes in vitro metabolic stability of exemplary B7-H3 miniprotein conjugates.
(§3) Pharmacokinetic assessments are described in Example 18.

[6] = In vitro metabolic stability, plasma, mouse; type: in vitro ADME; conditions: 37° C.
Text: as §2, §3

[7] = system: opossum kidney proximal tubule cells; assay: Proximal tubule epithelial cell (OK cell) uptake assay relative to control C4; type: cell-based
Procedure: Inhibition constant (Ki) of each conjugate was measured using DELFIA as described herein.

## CC[C@H](C)[C@@H]1NC(=O)[C@H](CCCCN)NC(=O)[C@H](CCC(=O)O)NC(=O)[C@H](CCCC[N+](C)(C)C)NC(=O)[C@H](C)NC(=O)[C@@H](NC(=O)CCOCCOCCOCCOCCNC(=O)CCCC[C@@H]2SC[C@@H]3NC(=O)N[C@@H]32)CSSC[C@@H]2NC(=O)[C@@H]3CCCN3C(=O)[C@H](CC(=O)O)NC(=O)[C@H](CC(=O)O)NC(=O)[C@H](CC(N)=O)NC(=O)[C@H](CC(C)C)NC(=O)[C@H](C)NC(=O)[C@H](CCCCNC)NC(=O)[C@H]([C@@H](C)CC)NC(=O)[C@H](Cc3ccccc3)NC(=O)[C@H](C)NC(=O)[C@H](CCCCNC)NC(=O)[C@H]([C@@H](C)CC)NC(=O)[C@H](CCC(N)=O)NC(=O)[C@H](C)NC(=O)[C@H](Cc3ccc(O)cc3)NC(=O)[C@H]([C@@H](C)O)NC(=O)[C@H](CC(C)C)NC(=O)[C@H](CSSC[C@@H](C(=O)N[C@@H](CO)C(N)=O)NC(=O)[C@H](CC(C)C)NC(=O)[C@H](CCC(=O)O)NC(=O)[C@H](CCCCNC)NC(=O)[C@H](C)NC(=O)[C@H](CCC(=O)O)NC(=O)[C@H](CO)NC(=O)[C@H](CC(C)C)NC(=O)[C@H]([C@@H](C)CC)NC(=O)[C@H](CCC(=O)O)NC(=O)[C@H](CO)NC(=O)[C@H](CO)NC(=O)[C@H](CCC(N)=O)NC2=O)NC(=O)[C@@H]2CCCN2C(=O)[C@H](CC(C)C)NC(=O)[C@H](Cc2c[nH]c3ccccc23)NC(=O)[C@H]([C@@H](C)CC)NC(=O)[C@H]([C@@H](C)CC)NC(=O)[C@H](CCC(=O)O)NC(=O)[C@H](CO)NC(=O)[C@H](CC(C)C)NC(=O)[C@H](C)NC(=O)[C@H](C)NC1=O [Compound C306]
[1]
  In vitro Stability (mouse) - KBBM: >12
[2]
  In vitro Stability (mouse) - Plasma: >12
[3]
  background binding to untransfected HEK293 cells: low-background binding

## CC[C@H](C)[C@@H]1NC(=O)[C@H](Cc2ccccc2)NC(=O)[C@H](C)NC(=O)[C@H](CCCCNC)NC(=O)[C@H]([C@@H](C)CC)NC(=O)[C@H](CCC(N)=O)NC(=O)[C@H](C)NC(=O)[C@H](Cc2ccc(O)cc2)NC(=O)[C@H]([C@@H](C)O)NC(=O)[C@H](CC(C)C)NC(=O)[C@@H]2CSSC[C@@H](C(=O)N[C@@H](CO)C(N)=O)NC(=O)[C@H](CC(C)C)NC(=O)[C@H](CCC(=O)O)NC(=O)[C@H](CCCCNC)NC(=O)[C@H](C)NC(=O)[C@H](CCC(=O)O)NC(=O)[C@H](CO)NC(=O)[C@H](CC(C)C)NC(=O)[C@H]([C@@H](C)CC)NC(=O)[C@H](CCC(=O)O)NC(=O)[C@H](CO)NC(=O)[C@H](CO)NC(=O)[C@H](CCC(N)=O)NC(=O)[C@H](CSSC[C@H](NC(=O)CCOCCOCCOCCOCCNC(=O)CCCC[C@@H]3SC[C@@H]4NC(=O)N[C@@H]43)C(=O)N[C@@H](C)C(=O)N[C@@H](CCCC[N+](C)(C)C)C(=O)N[C@@H](CCC(=O)O)C(=O)N[C@@H](CCCCN)C(=O)N[C@@H]([C@@H](C)CC)C(=O)N[C@@H](C)C(=O)N[C@@H](C)C(=O)N[C@@H](CC(C)C)C(=O)N[C@@H](CO)C(=O)N[C@@H](CCC(=O)O)C(=O)N[C@@H]([C@@H](C)CC)C(=O)N[C@@H]([C@@H](C)CC)C(=O)N[C@@H](Cc3c[nH]c4ccccc34)C(=O)N[C@@H](CC(C)C)C(=O)N3CCC[C@H]3C(=O)N2)NC(=O)[C@@H]2CCCN2C(=O)[C@H](CC(=O)O)NC(=O)[C@H](CCCCNC)NC(=O)[C@H](CC(N)=O)NC(=O)[C@H](CC(C)C)NC(=O)[C@H](CCCCNC)NC(=O)[C@H](C)NC1=O [Compound C308]
[4]; 20-fold molar excess of decoy C118
  % Uptake reduction in the presence of a decoy C118: 107.9%
[4]; 20-fold molar excess of decoy C119
  % Uptake reduction in the presence of a decoy C119: 108.6%
[4]; 20-fold molar excess of decoy C120
  % Uptake reduction in the presence of a decoy C120: 104.5%
[3]
  background binding to untransfected HEK293 cells: low-background binding

## CC[C@H](C)[C@@H]1NC(=O)[C@H](Cc2ccccc2)NC(=O)[C@H](C)NC(=O)[C@H](CCCCNC)NC(=O)[C@H]([C@@H](C)CC)NC(=O)[C@H](CCC(N)=O)NC(=O)[C@H](C)NC(=O)[C@H](Cc2ccc(O)cc2)NC(=O)[C@H]([C@@H](C)O)NC(=O)[C@H](CC(C)C)NC(=O)[C@@H]2CSSC[C@@H](C(=O)N[C@@H](CO)C(N)=O)NC(=O)[C@H](CC(C)C)NC(=O)[C@H](CCC(=O)O)NC(=O)[C@H](CCCCNC)NC(=O)[C@H](C)NC(=O)[C@H](CCC(=O)O)NC(=O)[C@H](CO)NC(=O)[C@H](CC(C)C)NC(=O)[C@H]([C@@H](C)CC)NC(=O)[C@H](CCC(=O)O)NC(=O)[C@H](CO)NC(=O)[C@H](CO)NC(=O)[C@H](CC(N)=O)NC(=O)[C@H](CSSC[C@H](NC(=O)CCOCCOCCOCCOCCNC(=O)CCCC[C@@H]3SC[C@@H]4NC(=O)N[C@@H]43)C(=O)N[C@@H](C)C(=O)N[C@@H](CCCC[N+](C)(C)C)C(=O)N[C@@H](CCC(=O)O)C(=O)N[C@@H](CCCCN)C(=O)N[C@@H]([C@@H](C)CC)C(=O)N[C@@H](C)C(=O)N[C@@H](C)C(=O)N[C@@H](CC(C)C)C(=O)N[C@@H](CO)C(=O)N[C@@H](CCC(=O)O)C(=O)N[C@@H]([C@@H](C)CC)C(=O)N[C@@H]([C@@H](C)CC)C(=O)N[C@@H](Cc3c[nH]c4ccccc34)C(=O)N[C@@H](CC(C)C)C(=O)N3CCC[C@H]3C(=O)N2)NC(=O)[C@@H]2CCCN2C(=O)[C@H](CC(=O)O)NC(=O)[C@H](CC(=O)O)NC(=O)[C@H](CC(N)=O)NC(=O)[C@H](CC(C)C)NC(=O)[C@H](C)NC(=O)[C@H](C)NC1=O [Compound C312]
[3]
  background binding to untransfected HEK293 cells: low-background binding

## C41 ({DOTA-PEG4′}-AEALYAQEKIAALSEIIWLPNLTHGQIMAFIAALNNDPSQSSELLSEAEQLNDSQAPG-OH; also: In complexed by DOTA) [Compound C41]
[5]
  In vitro Stability (mouse) - KBBM: >12
[6]
  In vitro Stability (mouse) - Plasma: >12

## C44: B7-H3 miniprotein test article of Table 5 ({DOTA-PEG4′}-YAQEKIAALSEIIWLPNLTHGQIMAFIAALNNDPSQSSELLSEALALNDSQAPG; also: In complexed by DOTA) [Compound C44]
[5]
  In vitro Stability (mouse) - KBBM: >12
[6]
  In vitro Stability (mouse) - Plasma: >12

## C298 (CAXEKIAALSEIIWLPCLTYAQIXAFIAALNDDPCQSSEILSEAKELCS; Biotin-PEG4 N-term, methylated lysines, C-amide; SITE 3 trimethyllysine; SITE 24 dimethyllysine) [Compound C298]
[3]
  background binding to untransfected HEK293 cells: low-background binding

## {Biotin-PEG4}-CAREKIAALSEIIWLPCLTYAQIKAFIAALNDDPCQSSEILSEAKELCS-NH2 (disulfide 1-35, 17-48) [Compound C284]
[7]
  % Uptake of C4: 56.6%

## {Biotin-PEG4}-CAREKIAALSEIIWLPCLTYAQILAFIAALNDDPCQSSEILSEAKELCS-NH2 (disulfide 1-35, 17-48) [Compound C286]
[7]
  % Uptake of C4: 26%

## {Biotin-PEG4}-CAREKIAALSEIIWLPCLTYAQIQAFIAALNDDPCQSSEILSEAKELCS-NH2 (disulfide 1-35, 17-48) [Compound C290]
[7]
  % Uptake of C4: 17%

## {Biotin-PEG4}-CAREKIAALSEIIWLPCLTYAQIVAFIAALNDDPCQSSEILSEAKELCS-NH2 (disulfide 1-35, 17-48) [Compound C291]
[7]
  % Uptake of C4: 30%

From patent publication US12691186B2, “B7-H3 miniproteins, conjugates, and uses thereof” (priority 2023, dated 2026)
